Measured values reported in patent US20250338857A1, “USE OF INTERFERING RNAS DIRECTED AGAINST THE CHOLINERGIC SYSTEM FOR CONTROLLING INSECT PESTS” (priority 2022, published 2025).
≈ marks a conversion by molar mass, not a printed value.

Experiments:
[1] = tested on: aphid larvae; assay: Imidacloprid concentration-effect mortality curve in aphid larvae (LC50); assay type: in vivo; conditions: Acyrthosiphon pisum, artificial nutrition
Method: Mortality tests were performed using an artificial nutrition system comprising a PVC tube closed by a Parafilm® at each end, in which 5 adult aphids or 20 larvae were deposited. At one of the ends of the artificial nutrition “cell”, 200 μL of nutrient solution comprising the solution to be tested (insecticide, dsRNA) were deposited on the Parafilm then covered with a 2nd Parafilm to allow the aphids to suck the solution for feeding by piercing the Parafilm with their rostrum. The cells were placed at 20° C. in a chamber with a photoperiod of 16 h. To determine the concentration of imidacloprid leading to 50% mortality (LC50) in the aphid larvae, a concentration-effect curve was plotted at 48 h and 72 h from a range of imidacloprid concentrations from 10^−6 to 10 μg/mL.
The mortality curves were obtained with GraphPad Prism software in the form of a non-linear regression and adjusted with the Hill equation,
[formula] • where Y is the percent mortality observed at the concentration value X, m and M are respectively the minimum and maximum values of the curve, nH is the Hill coefficient and LC50 is the concentration of imidacloprid causing 50% mortality. The results are expressed as a mean±S.E.M. Type of Effect of the dsRNAs

[2] = tested on: cockroach Periplaneta americana; assay: Mortality after acute imidacloprid intoxication in cockroaches exposed to a sublethal dose for 30 days; assay type: in vivo; conditions: 0.025 μg/cockroach/day for 30 days, re-exposure 96 h

O=[N+]([O-])NC1=NCCN1Cc1ccc(Cl)nc1 [imidacloprid]
LC50 ([1]; 48 h): 8 ng/mL (≈ 0.0313 µM) | LC50 ([1]; 72 h): 4 ng/mL (≈ 0.0156 µM) | effect of sublethal intoxication for 30 days on sensitivity of cockroaches to acute intoxication [2]: loss of sensitivity
